Laboratory results from US4797280A, “Antibiotics produced by Kibdelosporangium aridum Shearer gen. nov., sp. nov. ATCC 39323” (SmithKline Beckman Corporation, priority 1986, dated 1989).

Tested on: rumen fluid from dairy cows
Test: Rumen in vitro experiment with dairy cow rumen fluid
Conditions: about 23 hours
Experimental: A similar experiment was carried out using rumen fluid from dairy cows fed a typical dairy cow diet of two parts corn silage and three parts dairy concentrate. Specifically, strained rumen fluid (10 ml) was obtained, from an animal fed two hours earlier, via cannula and was mixed with 10 ml of a nutrient broth comprising a 2:3 mix of corn silage and dairy concentrate. After adding a selected growth promotant, the mixture was incubated at 39° C. for about 23 hours, with oscillation.

With `CC[C@@H](C(=O)[C@@H](C)[C@@H](O)[C@H](C)CCc1ccc(C)c(O)c1C(=O)O)[C@H]1O[C@](CC)([C@H]2CC[C@](O)(CC)[C@H](C)O2)C[C@@H]1C` [Lasalocid] the “% PR” value (0.5 ppm) was 114% OF CONTROL, the ACE (0.5 ppm) was 95% OF CONTROL and the AMO (0.5 ppm) was 93% OF CONTROL. For the same compound, the BUT (0.5 ppm) was 94% OF CONTROL, the DLAC (0.5 ppm) was 0% OF CONTROL and the ETOH (0.5 ppm) was 0% OF CONTROL. It also gave a GLU (0.5 ppm) of 0% OF CONTROL, an IBU (0.5 ppm) of 119% OF CONTROL and an IVA (0.5 ppm) of 102% OF CONTROL. It also gave an LLAC (0.5 ppm) of 0% OF CONTROL, an LYS (0.5 ppm) of 106% OF CONTROL and an NH--N (0.5 ppm) of 106% OF CONTROL. For the same compound, the PRO (0.5 ppm) was 112% OF CONTROL, the TOTAL (0.5 ppm) was 99% OF CONTROL and the VAL (0.5 ppm) was 87% OF CONTROL. For the same compound, the “% PR” value (5 ppm) was 136% OF CONTROL, the ACE (5 ppm) was 109% OF CONTROL and the AMO (5 ppm) was 198% OF CONTROL. For the same compound, the BUT (5 ppm) was 79% OF CONTROL, the DLAC (5 ppm) was 0% OF CONTROL and the ETOH (5 ppm) was 0% OF CONTROL. The GLU (5 ppm) was 0% OF CONTROL, the IBU (5 ppm) was 164% OF CONTROL and the IVA (5 ppm) was 91% OF CONTROL. The LLAC (5 ppm) was 0% OF CONTROL, the LYS (5 ppm) was 130% OF CONTROL and the NH--N (5 ppm) was 131% OF CONTROL. For the same compound, the PRO (5 ppm) was 144% OF CONTROL, the TOTAL (5 ppm) was 106% OF CONTROL and the VAL (5 ppm) was 90% OF CONTROL. For the same compound, the “% PR” value (50 ppm) was 186% OF CONTROL, the ACE (50 ppm) was 65% OF CONTROL and the AMO (50 ppm) was 278% OF CONTROL. It also gave a BUT (50 ppm) of 62% OF CONTROL, a DLAC (50 ppm) of 0% OF CONTROL and an ETOH (50 ppm) of 0% OF CONTROL. The GLU (50 ppm) was 0% OF CONTROL, the IBU (50 ppm) was 51% OF CONTROL and the IVA (50 ppm) was 41% OF CONTROL. For the same compound, the LLAC (50 ppm) was 0% OF CONTROL, the LYS (50 ppm) was 150% OF CONTROL and the NH--N (50 ppm) was 78% OF CONTROL. It also gave a PRO (50 ppm) of 151% OF CONTROL, a TOTAL (50 ppm) of 81% OF CONTROL and a VAL (50 ppm) of 53% OF CONTROL.
